From paper doi:10.1101/2023.04.24.538046v2 (biorxiv, 2023)

Target: TcMIP (Trypanosoma cruzi, UniProt Q09734)
Assay: biochemical

Sequence of TcMIP (Q09734 30-196 limits assumed): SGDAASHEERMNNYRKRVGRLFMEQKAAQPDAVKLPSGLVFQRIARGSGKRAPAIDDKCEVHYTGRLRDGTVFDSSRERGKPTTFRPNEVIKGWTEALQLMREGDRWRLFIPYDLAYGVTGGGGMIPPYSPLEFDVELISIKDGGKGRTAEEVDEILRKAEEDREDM

| SMILES | Kd [nM] |
| --- | --- |
| O=C1[C@@H]2CCC[C@H]([C@@H](CO)CN1Cc1ccccn1)N2S(=O)(=O)c1cc(Cl)cc(Cl)c1 [JK095, (1S,5S,6R)-10-((3,5-dichlorophenyl)sulfonyl)-5-(hydroxymethyl)-3-(pyridin-2-ylmethyl)-3,10-diazabicyclo [4.3.1]decan-2-one] | 599 ± 25.5 |
| C[C@@H](c1ccccn1)N1C[C@H](CO)[C@H]2CCC[C@@H](C1=O)N2S(=O)(=O)c1cc(Cl)cc(Cl)c1 [JK236] | 45.5 ± 9.2 |
